Data reported in paper PMC3139667, “A Screen against Leishmania Intracellular Amastigotes: Comparison to a Promastigote Screen and Identification of a Host Cell-Specific Hit” (PLoS Neglected Tropical Diseases, 2011).
“Also recorded” adds a separate entry of the source. Structures can show the parent of a compound that is named as a salt. Where two headings read alike, the source gives them in different places.

Legend:
[1] = system: L. donovani promastigotes; experiment: Promastigote high-throughput ATP-bioluminescence assay; assay type: cell-based, Leishmania donovani; settings: for GI50: read-out: GI50 Promastigote
Protocol: L. donovani promastigotes from an exponentially growing culture were diluted to 10^6/ml in RPMI containing 10% FBS and 10% BHT. The diluted culture (99 µl/well) was dispensed in sterile 96-well flat white opaque assay plates (Greiner Bio-One) using a WellMate multichannel dispenser (Matrix). 1 µl of 1 mM test compound dissolved in DMSO was added to the plates for a final concentration of 10 µM compound and 1% DMSO. Amphotericin B was added as a positive control (final concentration 2 µM, 1% DMSO) and as a negative control, 1 µl DMSO was added (1% final concentration). Compounds and controls were added to the assay plate with the robotic dispenser Biomek FXp liquid handler (Beckman Coulter). Promastigotes were incubated with the compounds for 72 h at 27°C. The parasites were then lysed by adding 50 µl of CellTiter-Glo (Promega) and placed on an orbital shaker for 5 min at room temperature. After lysis, the resulting ATP-bioluminescence was measured using the Analyst HT plate reader (Molecular Devices). Percentage inhibition of parasite growth was calculated for each well as [1-(RLUx-RLU^+)/(RLU^--RLU^+)]*100 where RLUx, RLU^+ and RLU^- are respectively the Relative Light Units for each well, positive (amphotericin B) and negative (DMSO) controls. A screening window coefficient, denoted Z' factor, was used to evaluate the performance of the assay. The Z' factor, calculated as 1-(3σc++3σc−)/(µc+−µc−) where σc+, σc−, µc+ and µc− are respectively the standard deviation and mean values of positive and negative controls, is reflective of the assay signal dynamic range and the data variation associated with signal measurement. […] GI50 curve fitting was carried out using GraphPad Prism 4 Software (GraphPad Software Inc., San Diego, CA).

[2] = system: L. donovani intracellular amastigotes; experiment: Intracellular amastigote high-throughput image-based assay in infected THP-1 macrophages; assay type: cell-based, Leishmania donovani; settings: for GI50: read-out: GI50 Intracellular amastigote
Protocol: (§1) Sterile, black, 96-well, clear bottom plates (Greiner Bio-One) were seeded with exponentially growing THP-1 (5×10^5cells/ml). THP-1 were treated with 0.1 µM phorbol myristate acetate (PMA, Sigma) at 37°C for 48 h to achieve differentiation into adherent, non-dividing macrophages. Maturation of THP-1 cells towards monocyte-macrophage like cells is essential to avoid parasitized cells being overgrown by replicating cells. After activation by PMA, cells were washed and incubated with complete RPMI medium containing stationary phase L. donovani promastigotes at a macrophage/promastigote ratio of 1/15. After 4 h incubation at 37°C, non-internalized promastigotes were removed by 2–3 successive washes with RPMI containing 5% FBS and 5% horse serum. Test compounds (10 µM), positive control (2 µM amphotericin B) or negative control (1% DMSO) were then added to the cultures using a Biomek FXp liquid handler (Beckman Coulter). Cultures were incubated at 37°C for 72 h. Cells were then washed with phosphate-buffered saline (PBS), fixed for 30 minutes with 4% formaldehyde, rinsed again with PBS, stained for 2 h with 4′,6′-diamidino-2-phenylindole (DAPI 300 nM) and finally washed with PBS. […] Images were acquired with an INCell Analyzer 1000 automated epi-fluorescent microscope (G.E. Healthcare). The excitation and emission filters used to detect DAPI were 350/50 nm and 460/40 nm respectively. Eight image fields were acquired per well with a 20X objective. The proprietary INCell Developer Toolbox 1.7 software was used for image analysis. Segmentation parameters were set to identify host nuclei with a minimum area of 250 µm^2 and parasite kinetoplast with an average area of 1 µm^2. The intensity of parasite nucleus was too low to be detected with a 20X objective. A border, representing the boundary of the cell, was drawn around the nucleus (total area between 700 and 2000 µm^2). Only parasites found within this area were included in the calculation to eliminate extracellular parasites. False positive parasite detection in the nucleus was also excluded from the calculation. Host cell nuclei and parasite kinetoplasts were counted and the ratio of parasites DNA to host nuclei was selected as the measurement output. Percentage inhibition of parasite growth was calculated as [1-(P/hcx-P/hc^+)/(P/hc^−-P/hc^+)]*100 where P/hcx, P/hc^+ and P/hc^− are parasite per host cell ratio for every well, positive control (amphotericin B) and negative control (DMSO) respectively. Calculation of Z' factor and GI50 curve fitting were carried out as described above.

THP-1 = experiment: Host cell toxicity: THP-1 host nuclei counts in the image-based assay; settings: for GI50: read-out: GI50 THP-1; for Selectivity: ratio between parasite GI50 and THP-1 GI50
Protocol: as §1

[3] = system: L. donovani axenic amastigotes; experiment: Dose response study against axenic amastigotes (CellTiter-Glo); assay type: cell-based, Leishmania donovani; settings: for GI50: read-out: GI50 Axenic amastigote
Protocol: L. donovani axenic amastigotes (5×10^5 cells/ml in axenic amastigote media) were dispensed in sterile 96-well flat white opaque assay plates (Greiner Bio-One) using a WellMate multichannel dispenser (Matrix). […] 1% DMSO and amphotericin B (2 µM, 1% DMSO final concentration) were added as negative and positive controls respectively. Axenic amastigotes were incubated with the compounds for 72 h at 37°C with 5% CO2. Parasite viability was then measured using CellTiter-Glo as described above.

[4] = Leishmania donovani, 72 h at 27°C, CellTiter-Glo
[5] = 10 µM, duplicates, hit = 60% parasite growth inhibition and not more than 20% reduction in THP-1 numbers
[6] = Leishmania donovani, THP-1, 72 h, L. donovani in THP-1, 72 h, parasites per host cell
[7] = ratio between promastigote GI50 and intracellular amastigote GI50, >2 more active against intracellular amastigote, <0.4 more active against promastigotes
[8] = Leishmania donovani, 72 h at 37°C, CellTiter-Glo
[9] = L. donovani in THP-1, 72 h, parasites per host cell
[10] = PMA-differentiated infected THP-1, 72 h, host nuclei count

Structure (SMILES)	GI50 [1, 4] [µM]	GI50 [2, 6] [µM]	Specificity [2, 7]	GI50 (THP-1; Homo sapiens, THP-1, 72 h) [µM]	Selectivity (THP-1)	GI50 [3, 8] [µM]	further results
CC/C(=C(\c1ccccc1)c1ccc(OCCN(C)C)cc1)c1ccccc1 [Tamoxifen Citrate]	10.2	20.8	0.49	> 16.5	1.61	> 50	Primary screen against intracellular amastigotes, hit selection [2, 5]: active
Cc1cc(C2CCCCC2)n(O)c(=O)c1 [Ciclopirox]	15.2	22	0.69	42	1.90	> 50	–
C=CCN1CC[C@]23c4c5ccc(O)c4O[C@H]2/C(=N/N=C2\CC[C@@]4(O)[C@H]6Cc7ccc(O)c8c7[C@@]4(CCN6CC=C)[C@H]2O8)CC[C@@]3(O)[C@H]1C5 [Naloxonazine]	> 50	3.45	–	33.8	9.68	> 50	Activity against promastigotes (in words) ([1]; dose response, up to 50 µM): no activity; also recorded: completely inactive; Primary screen against intracellular amastigotes, hit selection [2]: complete specificity for the intracellular amastigote stage; Specificity [2]: 14.32; GI50 [2, 9]: 3.49 µM; GI90 intracellular amastigote ([2]; curative concentration): 12.5 µM; GI90 THP-1 (THP-1): 50 µM; Activity against axenic amastigotes (in words) ([3]; dose response, up to 50 µM): no activity
CC(=O)OC[C@H]1O[C@@H]([S-])[C@H](OC(C)=O)[C@@H](OC(C)=O)[C@@H]1OC(C)=O.CCP(CC)CC.[Au+] [Auranofin]	–	–	0.51	–	1.88	–	GI50 ([1]; 72 h at 27°C, CellTiter-Glo): 11.1 µM; GI50 [2, 9]: 21.8 µM; GI50 (THP-1; [10]): 20.9 µM; GI50 ([3]; 72 h at 37°C, CellTiter-Glo): > 50 µM
C=C1C(=O)O[C@H]2[C@H]1CC/C(C)=C/CC[C@@]1(C)O[C@@H]21 [Parthenolide]	15.5	> 50	0.31	> 16.5	1.06	4.35	–
CC[C@H]1CN2CCc3cc(OC)c(OC)cc3[C@@H]2C[C@@H]1C[C@H]1NCCc2cc(OC)c(OC)cc21 [Emetine]	0.03	0.082	–	1.28	–	1.62	–
Oc1c(Cl)cc(Cl)c(Cl)c1Cc1c(O)c(Cl)cc(Cl)c1Cl [Hexachlorophene]	–	–	3.49	16.5	–	–	GI50 ([1]; Leishmania donovani, 72 h): 15.9 µM; GI50 ([2]; Leishmania donovani, THP-1, 72 h): 4.54 µM; GI50 ([3]; Leishmania donovani, 72 h): 14.8 µM
C[C@@H]1[C@H](O)[C@@H](C)/C=C/C=C/C=C/C=C/C=C/C=C/C=C/[C@H](O[C@@H]2O[C@H](C)[C@@H](O)[C@H](N)[C@@H]2O)C[C@@H]2O[C@](O)(C[C@@H](O)C[C@@H](O)[C@H](O)CC[C@@H](O)C[C@@H](O)CC(=O)O[C@H]1C)C[C@H](O)[C@H]2C(=O)O [Amphotericin B]	1.61	–	1.43	> 50	44.52	5.42	Effect on growth of intracellular L. donovani ([2]; 2 µM, 72 h): significantly inhibited growth; Primary screen against intracellular amastigotes, hit selection [2, 5]: active; GI50 [2, 9]: 1.12 µM
Clc1cc(Cl)c(OCC#CI)cc1Cl [Haloprogin]	1.05	6	0.17	20	19.04	0.56	–
COc1cc2nc(N3CCN(C(=O)c4ccco4)CC3)nc(N)c2cc1OC.Cl [Prazocin Hydrochloride]	–	–	–	–	3.46	–	GI50 ([1]; 72 h at 27°C, CellTiter-Glo): 16.7 µM; Specificity [2]: 2.48; GI50 [2, 9]: 6.73 µM; GI50 (THP-1; [10]): 23.3 µM; GI50 ([3]; 72 h at 37°C, CellTiter-Glo): > 50 µM
Nc1c2ccccc2nc2ccccc12 [Aminacrine]	8.96	1.9	4.71	13	6.82	> 16.5	–
CN1C[C@H](CNC(=O)OCc2ccccc2)C[C@@H]2c3cccc4c3c(cn4C)C[C@H]21 [Metergoline]	15.1	0.78	19.17	37.1	47.22	> 50	–
CC(C)(C)c1ccc(S(=O)(=O)/C=C/C#N)cc1 [BAY 11–7085]	–	–	–	–	32.46	–	GI50 ([1]; 72 h at 27°C, CellTiter-Glo): 1.54 µM; Specificity [2]: 0.06; GI50 (THP-1; [10]): > 50 µM; GI50 ([3]; 72 h at 37°C, CellTiter-Glo): 0.42 µM
COc1ccccc1OCCNCC(O)COc1cccc2[nH]c3ccccc3c12 (centres unmarked) [Carvedilol]	12.4	6.16	2.01	37.5	6.07	> 16.5	–
CN(C)C(=S)SSC(=S)N(C)C [Thiram]	4.62	10.4	0.44	1.58	0.34	5.42	–
COCc1c(C(C)C)nc(C(C)C)c(/C=C/[C@@H](O)C[C@@H](O)CC(=O)O)c1-c1ccc(F)cc1 [Cerivastatin]	10.8	> 50	0.22	7.15	0.66	0.02	–
Clc1ccccc1C(c1ccccc1)(c1ccccc1)n1ccnc1 [Clotrimazole]	12.9	1.08	11.92	> 16.5	15.32	4.56	–
CC[C@@]1(O)C[C@H](O[C@H]2C[C@H](N(C)C)[C@H](O[C@H]3C[C@H](O)[C@H](O[C@H]4CCC(=O)[C@H](C)O4)[C@H](C)O3)[C@H](C)O2)c2c(cc3c(c2O)C(=O)c2c(O)cccc2C3=O)[C@H]1C(=O)OC [Aclacynomycine a1]	–	–	1.57	–	5	–	GI50 ([1]; 72 h at 27°C, CellTiter-Glo): 9.15 µM; GI50 [2, 9]: 5.81 µM; GI50 (THP-1; [10]): 29.1 µM; GI50 ([3]; 72 h at 37°C, CellTiter-Glo): > 16.5 µM
Cc1ccc2c(Cl)cc(Cl)c(O)c2n1 [chlorquinaldol]	6.3	5.5	1.14	39.3	7.14	1.72	–
CCOc1ccccc1OCCN[C@H](C)Cc1ccc(OC)c(S(N)(=O)=O)c1 [Tamsulosin]	20	6.3	3.17	28	4.43	> 50	–
